Source: PubChem BioAssay (NCI)
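Cultured in 96-well plates, cells were exposed to test compound for 48 hours across five concentrations. The concentration for full growth arrest is given as TGI.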

What was measured:
Assay in all cases: NCI tumour cell line growth inhibition, 48 h
786-0 renal = system: 786-0 renal
HT29 colon = system: HT29 colon
K-562 leukemia = system: K-562 leukemia
KM12 colon = system: KM12 colon
MALME-3M melanoma = system: MALME-3M melanoma
NCI-H226 lung = system: NCI-H226 lung
NCI-H460 lung = system: NCI-H460 lung
OVCAR-5 ovarian = system: OVCAR-5 ovarian
RXF 393 renal = system: RXF 393 renal
SF-295 CNS = system: SF-295 CNS
SF-539 CNS = system: SF-539 CNS
SK-MEL-5 melanoma = system: SK-MEL-5 melanoma
SN12C renal = system: SN12C renal
SNB-19 CNS = system: SNB-19 CNS
SNB-75 CNS = system: SNB-75 CNS
SW-620 colon = system: SW-620 colon
U251 CNS = system: U251 CNS
UACC-62 melanoma = system: UACC-62 melanoma
MDA-MB-435 = system: MDA-MB-435
MOLT-4 leukemia = system: MOLT-4 leukemia

Row | SMILES | TGI (786-0 renal) [µM] | TGI (HT29 colon) [µM] | TGI (K-562 leukemia) [µM] | TGI (KM12 colon) [µM] | TGI (MALME-3M melanoma) [µM] | TGI (NCI-H226 lung) [µM] | TGI (NCI-H460 lung) [µM] | TGI (OVCAR-5 ovarian) [µM] | TGI (RXF 393 renal) [µM] | TGI (SF-295 CNS) [µM] | TGI (SF-539 CNS) [µM] | TGI (SK-MEL-5 melanoma) [µM] | TGI (SN12C renal) [µM] | TGI (SNB-19 CNS) [µM] | TGI (SNB-75 CNS) [µM] | TGI (SW-620 colon) [µM] | TGI (U251 CNS) [µM] | TGI (UACC-62 melanoma) [µM] | TGI (MDA-MB-435) [µM] | TGI (MOLT-4 leukemia) [µM]
1 | Nn1c(NNC(=O)C(=O)Nc2cc(Cl)c(Cl)cc2Cl)n[nH]c1=S | > 100 | > 100 | > 100 | > 100 | > 100 | > 100 | > 100 | > 100 | > 100 | > 100 | > 100 | > 100 | > 100 | > 100 | > 100 | > 100 | > 100 | > 100 |  | 
2 | COC(=O)C(CC12CC3CC(CC(C3)C1)C2)NC(=O)C(N)CC(=O)O (centres undefined) | > 100 | > 100 | > 100 | > 100 |  |  | > 100 | > 100 | > 100 | > 100 |  | > 100 | > 100 | > 100 | > 100 | > 100 | > 100 | > 100 | > 100 | > 100
3 | CCOP(=O)(OCC)C1CC(O)C(=O)N1 (centres undefined) | > 100 | > 100 | > 100 | > 100 | > 100 | > 100 |  | > 100 |  | > 100 |  | > 100 | > 100 | > 100 | > 100 | > 100 | > 100 | > 100 | > 100 | > 100
4 | O=C(/C=C/c1ccccc1)/C=N/N1C(=S)N(c2ccccc2)C(=Nc2ccccc2)C1=Nc1ccccc1 | > 100 | > 100 | > 100 | > 100 | > 100 | > 100 | > 100 | > 100 | > 100 | > 100 | > 100 | > 100 | > 100 | > 100 |  | > 100 | > 100 | > 100 |  | > 100
5 | N=c1oc2c(Cl)cc(Cl)cc2cc1C(=O)Nc1cccc2ccccc12 | 12.8 | > 100 | > 53.3 | > 100 | > 100 | 66.2 | 62.1 | > 100 | 76.8 | 96.9 |  | > 100 | 12.8 | > 78.2 | 10.9 | 27.1 | 7.01 | > 100 | > 100 | > 37.5
6 | O=C1C(Br)=CC2(C=C1Br)CCNC1=C2C(=O)c2ccccc2C1=O | 29.5 | > 100 | 48.4 | 23.4 | 33.8 |  |  |  |  | 33.2 |  | 28.5 | 19.6 |  | > 100 | 87.8 |  | 29.6 |  | 22.7
7 | COC12OC3(C4OC41)C(C(=O)O[C@H]3CO[Si](C)(C)C(C)(C)C)C2C(=O)Oc1ccccc1 (some centres undefined) | > 100 | > 100 | > 100 | > 100 | > 100 | > 100 | > 100 | > 100 |  | > 100 |  | > 100 | > 100 | > 100 | > 100 | > 100 | > 100 | > 100 | > 100 | > 100
